From US9320271B2, “Microbial composition” (Rohm and Haas Company, priority 2011, dated 2016)

System: Staphylococcus aureus (10788 strain)
Test: 15 second contact kill test / antimicrobial efficacy of actives against S. aureus in water
Assay type: cell-based
Settings: 0.1% 3 isopropyl 6 methyl catechol (IPMC) alone
Description: Selected materials were also tested against a representative Grant positive Staphylococcus aureus. An overnight culture of Staphylococcus aureus (10788 strain) was inoculated onto a […] Soy Agar (TSA) plate and grown for ca. 18 hrs at 37° C. The culture S. aureus was washed from the plate using sterile saline (0.85% NaCl) solution and a sterile spreader and suspended in 50 ml saline. This suspension was separated into equal volumes and centrifuged at 4000 rpm for 15 minutes. […] Here, OD620 indicates the absorbance of a sample in a cuvette of 1.0 cm path length at a wavelength of 620 nm. This bacterial stock was used for assaying against antimicrobial actives (in triplicate). The following assay describes the testing of 8 materials using 6 dilutions across half of a 96-well micro titre plate (MTP). Using this approach it is possible to assay 16 actives (without replicates) with one full dilution plate, replicating this set up in two halves of the plate columns, 1-6 and 7-12. 1M solutions of the test actives were prepared in dimethylsulphoxide (DMSO). […] Aliquots (270 μl) of the materials at 1.11 times the final concentration were dispensed into the wells of the MTP along one column (A1-H1). This MTP was labelled as the “Screening plate”. In another MTP, labelled as the “Dilution plate”, […] of D/E neutralising solution from DIFCO Composition was added to column 1. The composition of the neutralising solution was as follows: pancreatic digest of casein, 5.0 g/L; […] Dextrose, 10 g/L, sodium thioglycollate, 1.0 g/L, sodium thiosulphate, 6.0 g/L; sodium bisulphite, 2.5 g/L; […] […] From the colony number in this segment, NMBS is calculated by the formula: NMBS=log {Ncol·10^DF·100/3} Here, Ncol is the colony count, and DF is the dilution factor taken from the MTP-well corresponding to the TSA plate segment (i.e. DF may range from 1 for the quench, to 6 for the highest dilution). […] Here, OD620 indicates the absorbance of a sample in a cuvette of 1.0 cm path length at a wavelength, of 620 nm. […]

## Cc1ccc(C(C)C)c(O)c1O [3-isopropyl-6-methylbenzene-1,2-diol]
  S. aureus 6538 Log Reduction: −0.07
